Patent US12370161B2, “Composition for treating atopy or pruritus comprising N-acetyl or N-acyl amino acid” (STEMDR INC., priority 2017, dated 2025)
“Also recorded” adds a separate entry of the source.

Legend:
[1] = test system: interferon γ; assay: Interferon γ mRNA in skin tissue by quantitative real-time PCR, Balb/c; format: in vivo, mouse; details: atopy-induced Balb/c mice, normalized to β-actin
Protocol: (§1) After isolating total RNA from the atopy-induced skin tissue using 500 μL of Trizol (Life Technologies, USA) according to the manufacturer's protocol and synthesizing cDNA using the Superscript III reverse transcriptase (Life Technologies, USA), real-time PCR was conducted by reacting with the primers of IL4 and interferon γ to be analyzed. The real-time PCR was conducted on a StepOne Plus PCR cycler (Applied Biosystems) using SYBR Green (Applied Biosystems, Foster City, CA). The mRNA expression data were analyzed by the ΔΔCT method and were normalized to β-actin for gene detection. The primers necessary for the real-time PCR were purchased from Qiagen (USA). […] IL4 is known to induce TH2 response and interferon γ is known to induce TH1 response.

[2] = test system: atopic dermatitis-induced Nc/Nga mouse; assay: Hematoxylin/eosin staining of back skin tissue, epidermal and dermal thickness; format: in vivo; details: 5 μm slices
From the text: After extracting back skin tissues of the atopic dermatitis-induced and drug-treated Nc/Nga mice of Example 2, the tissues were fixed with an Accustain formalin-free fixative solution and then prepared into paraffin blocks. The paraffin blocks were sliced to a thickness of 5 μm and the change in the thickness of the epidermal and dermal layers was observed by staining with hematoxylin/eosin.

[3] = test system: IL4; assay: IL4 mRNA in skin tissue by quantitative real-time PCR, Balb/c; format: in vivo, mouse; details: atopy-induced Balb/c mice, normalized to β-actin
Protocol: as §1

[4] = test system: IgE; assay: Serum IgE level by ELISA, Nc/Nga; format: in vivo, mouse; details: atopy-induced Nc/Nga mice
Protocol: (§2) After treatment with the test substance, the mice were sacrificed and blood was taken from the heart. After isolating serum from the blood, IgE level was measured. Specifically, after attaching antibodies diluted in a buffer solution onto a 96-well plate and incubating overnight at 4° C., experiment was conducted using an IgE ELISA kit (BD Biosciences, San Diego, CA) according to the provided manual. The quantity of the IgE protein was determined by measuring absorbance at 450 nm using a microplate reader.

[5] = test system: atopic dermatitis-induced Balb/c mouse; assay: SCORAD clinical skin score, DNFB-induced atopic dermatitis in Balb/c mouse; format: in vivo; design: key to Mouse 1 Sum / Mean (of Sum, SCORAD) / Mouse 2 Sum / Mouse 3 Sum: sum of symptom grades, each 0 (none) to 3 (severe); details: for skin-soothing and atopic dermatitis-treating effect (SCORAD, Table 1, FIG. 2A): Balb/c atopic dermatitis model, 0.1% topical, P<0.05 versus DNFB group; for apparent degree of dermatitis (back skin images, FIG. 2B): Balb/c, treated for 7 days, day 29; for Mouse 1 Erythema / Mouse 1 Abrasion / Mouse 1 Dryness / Mouse 1 Edema / Mouse 1 Eschar / Mouse 1 Lichenification / Mouse 1 Sum / Mouse 2 Abrasion / Mouse 2 Dryness / Mouse 2 Edema / Mouse 2 Erythema / Mouse 2 Eschar / Mouse 2 Lichenification / Mouse 2 Sum / Mouse 3 Abrasion / Mouse 3 Dryness / Mouse 3 Edema / Mouse 3 Erythema / Mouse 3 Eschar / Mouse 3 Lichenification / Mouse 3 Sum / Mean (of Sum, SCORAD): DNFB Balb/c; for Mouse 1 Erythema: 0.1% in PBS, 200 μL on back skin daily day 22-28, grade 0-3 (0 no symptom, 1 mild, 2 moderate, 3 severe); for Mouse 1 Abrasion / Mouse 1 Dryness / Mouse 1 Edema / Mouse 1 Eschar / Mouse 1 Lichenification / Mouse 1 Sum / Mouse 2 Abrasion / Mouse 2 Dryness / Mouse 2 Edema / Mouse 2 Erythema / Mouse 2 Eschar / Mouse 2 Lichenification / Mouse 2 Sum / Mouse 3 Abrasion / Mouse 3 Dryness / Mouse 3 Edema / Mouse 3 Erythema / Mouse 3 Eschar / Mouse 3 Lichenification / Mouse 3 Sum / Mean (of Sum, SCORAD): 0.1% topical day 22-28; for Mouse 1 Abrasion / Mouse 1 Dryness / Mouse 1 Edema / Mouse 1 Eschar / Mouse 1 Lichenification / Mouse 2 Abrasion / Mouse 2 Dryness / Mouse 2 Edema / Mouse 2 Erythema / Mouse 2 Eschar / Mouse 2 Lichenification / Mouse 3 Abrasion / Mouse 3 Dryness / Mouse 3 Edema / Mouse 3 Erythema / Mouse 3 Eschar / Mouse 3 Lichenification: grade 0-3; for Mouse 1 Sum / Mouse 2 Sum / Mouse 3 Sum: overall dermatitis score, sum of individual scores; for Mean (of Sum, SCORAD): mean of 3 mice
In short: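 Mice sensitized with 0.35% DNFB on shaved back, then challenged with 0.25% DNFB on days 6–27; 0.1% N-acetyl/N-acylamino acid in PBS applied topically daily days 22–28, 12 h apart from DNFB. Blinded SCORAD: six symptoms each graded 0–3, summed.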

[6] = test system: atopic dermatitis-induced Nc/Nga mouse; assay: SCORAD clinical skin score, DNFB-induced atopic dermatitis in Nc/Nga mouse; format: in vivo; details: for atopic dermatitis-treating effect (SCORAD, FIG. 3A) / dermatitis-treating effect of L-, L/D- and D-form (FIG. 6): Nc/Nga atopic dermatitis model; for atopic dermatitis-treating effect (SCORAD, FIG. 3A): 0.1% topical; for dermatitis-treating effect of L-, L/D- and D-form (FIG. 6): 0.1%; for effect in Nc/Nga model (back skin images, FIG. 3B): treated for 7 days, day 22
Protocol: In order to establish a model more similar to an atopy model than that of the Balb/c mice, atopy was induced in Nc/Nga mouse mice. Specifically, after inducing DNFB sensitization by applying 100 μL of 0.35% 2,4-dinitrofluorobenzene (DNFB) in acetone/olive oil (3:1) on the shaved back skin, dermatitis was induced by applying 100 μL of 0.15% DNFB for 4-20 days, every other day. Control mice were treated with a vehicle of the same volume (FIG. 1B).
After dissolving an N-acetyl or N-acylamino acid in phosphate-buffered saline to 0.1%, 200 μL of the solution was applied on the back skin of the mice every day, from day 22 until day 28 for the Balb/c atopic dermatitis model, and from day 15 until day 21 for the Nc/Nga atopic dermatitis model. When the N-acetyl or N-acylamino acid was treated together with DNFB, they were treated with 12-hour intervals in order to avoid direct reaction between the DNFB and the N-acetyl or N-acylamino acid. A non-treated group and a 2,4-dinitrofluorobenzene (DNFB) group were treated with phosphate-buffered saline of the same volume (FIGS. 1A-1B). As the N-acetylamino acid, products purchased from Sigma-Aldrich (USA), MP scientific (USA), TCI (Tokyo Chemical Industry, Japan), Santacruz (USA), etc. were used without purification.
The degree of skin soothing and the severity of atopic dermatitis were evaluated macroscopically according to the previously established SCORAD (SCORing Atopic Dermatitis) method (Oranje et al., 2007). The degree of symptoms such as edema, erythema, eschar, dryness, abrasion, lichenification, etc. was graded from 0 to 3 (0, no symptom; 1, mild; 2, moderate; 3, severe). The overall dermatitis score was determined from the sum of all individual scores (Table 1). The assessment was performed by an investigator who was blind to the grouping of the mice.
Skin-soothing effect and the severity of dermatitis were evaluated for the acyl derivatives of tryptophan synthesized in Example 9, the acyl derivative of alanine synthesized in Example 10 and N-palmitoylalanine (purchased from Santacruz (USA)) according to the method of Example 4 (Table 2)

[7] = test system: pruritus caused by atopic contact dermatitis; assay: Pruritus inhibition test, pruritus induced with DNFB; format: in vivo, mouse; details: 0.1% in physiological saline applied once onto right ear, pruritus measured for 1 hour
Protocol: In order to investigate whether L-form, LID-form and D-form N-acetylalanine, N-acetylarginine, N-acetylthreonine and N-acetyltryptophan inhibit pruritus caused by atopic contact dermatitis, 20 μL of 0.1% 2,4-dinitrofluorobenzene (DNFB) solution and 0.1% N-acetylamino acid dissolved in physiological saline were applied once onto the right ear 10 minutes after the final treatment (day 27) with 2,4-dinitrofluorobenzene (DNFB) (Physiological saline was applied to a negative control group), and then pruritus was measured for 1 hour. FIG. 7 compares the pruritus-relieving effect of L-form N-acetylalanine, N-acetylthreonine, N-acetylarginine and N-acetyltryptophan with D/L-form and D-form N-acetylalanine and N-acetyltryptophan at 0.1% after the induction of pruritus with DNFB.

[8] = test system: interferon γ; assay: Interferon γ mRNA in skin tissue by quantitative real-time PCR, Nc/Nga; format: in vivo, mouse; details: atopy-induced Nc/Nga mice, normalized to β-actin
Protocol: as §1

[9] = test system: IL4; assay: IL4 mRNA in skin tissue by quantitative real-time PCR, Nc/Nga; format: in vivo, mouse; details: atopy-induced Nc/Nga mice, normalized to β-actin
Protocol: as §1

[10] = test system: IgE; assay: Serum IgE level by ELISA, Balb/c; format: in vivo, mouse; details: atopy-induced Balb/c mice
Protocol: as §2

[11] = listed as L-form N-acetyltryptophan
[12] = listed as L-form N-acetylalanine

| Structure (SMILES) | level of interferon γ in the skin tissue (FIG. 5A) [1] | thickness of the epidermal and dermal layers (FIG. 3C) [2] | level of IL4 in the skin tissue (FIG. 5A) [3] | serum IgE level (FIG. 4B) [4] | skin-soothing and atopic dermatitis-treating effect (SCORAD, Table 1, FIG. 2A) [5] | apparent degree of dermatitis (back skin images, FIG. 2B) [5] | Mouse 1 Erythema [5] | Mouse 1 Abrasion [5] | Mouse 1 Dryness [5] | Mouse 1 Edema [5] | Mouse 1 Eschar [5] | Mouse 1 Lichenification [5] | Mouse 1 Sum [5] | Mouse 2 Abrasion [5] | Mouse 2 Dryness [5] | Mouse 2 Edema [5] | Mouse 2 Erythema [5] | Mouse 2 Eschar [5] | Mouse 2 Lichenification [5] | Mouse 2 Sum [5] | also measured |
| --- | --- | --- | --- | --- | --- | --- | --- | --- | --- | --- | --- | --- | --- | --- | --- | --- | --- | --- | --- | --- | --- |
| CC(=O)N[C@@H](Cc1c[nH]c2ccccc12)C(=O)O [N-acetyl-L-tryptophan] | significantly decreased | significantly decreased | significantly decreased | significant decrease | significant skin-soothing and atopic dermatitis-treating effects; also recorded: significant atopic dermatitis-treating effect | decreased remarkably | 1 | 1 | 0 | 1 | 1 | 1 | 5 | 0 | 1 | 1 | 0 | 1 | 0 | 3 | Mouse 3 Abrasion [5]: 2; Mouse 3 Dryness [5]: 0; Mouse 3 Edema [5]: 0; Mouse 3 Erythema [5]: 0; Mouse 3 Eschar [5]: 2; Mouse 3 Lichenification [5]: 0; Mouse 3 Sum [5]: 4; Mean (of Sum, SCORAD) [5]: 4; atopic dermatitis-treating effect (SCORAD, FIG. 3A) [6]: showed atopic dermatitis-treating effect; dermatitis-treating effect of L-, L/D- and D-form (FIG. 6) [6, 11]: remarkable effect; effect in Nc/Nga model (back skin images, FIG. 3B) [6]: remarkable effect; pruritus-relieving effect (FIG. 7) [7, 11]: significantly inhibited pruritus; level of interferon γ in the skin tissue (FIG. 5B) [8]: significantly decreased; level of IL4 in the skin tissue (FIG. 5B) [9]: significantly decreased; serum IgE level (FIG. 4A) [10]: significant decrease |
| CC(=O)N[C@@H](C)C(=O)O [N-acetyl-L-alanine] | significantly decreased | significantly decreased | significantly decreased | significant decrease | significant skin-soothing and atopic dermatitis-treating effects; also recorded: significant atopic dermatitis-treating effect | decreased remarkably | 1 | 1 | 2 | 1 | 1 | 0 | 6 | 1 | 0 | 1 | 1 | 1 | 0 | 4 | Mouse 3 Abrasion [5]: 1; Mouse 3 Dryness [5]: 0; Mouse 3 Edema [5]: 1; Mouse 3 Erythema [5]: 1; Mouse 3 Eschar [5]: 1; Mouse 3 Lichenification [5]: 1; Mouse 3 Sum [5]: 5; Mean (of Sum, SCORAD) [5]: 5; atopic dermatitis-treating effect (SCORAD, FIG. 3A) [6]: showed atopic dermatitis-treating effect; dermatitis-treating effect of L-, L/D- and D-form (FIG. 6) [6, 12]: remarkable effect; effect in Nc/Nga model (back skin images, FIG. 3B) [6]: remarkable effect; pruritus-relieving effect (FIG. 7) [7, 12]: significantly inhibited pruritus; level of interferon γ in the skin tissue (FIG. 5B) [8]: significantly decreased; level of IL4 in the skin tissue (FIG. 5B) [9]: significantly decreased; serum IgE level (FIG. 4A) [10]: significant decrease |
